Results reported in article PMC5441612, “Oligopeptides as full-length New Delhi metallo-β-lactamase-1 (NDM-1) inhibitors” (PLoS ONE, 2017).
Residues, ends and D or L forms follow the SMILES beside them.

Assays:
[1] = molecular target: full-length NDM-1 (Klebsiella pneumoniae, UniProt C7C422); experiment: biochemical; conditions: IC50 (Mean±SD), full-length NDM-1, ertapenem 80 μM as substrate, 15 min pre-incubation at 35°C
Protocol: The full-length NDM-1 enzyme was expressed and purified by a method from a previously published procedure. All the oligopeptides were synthesized by GL Biochem. (Shanghai), Ltd., China, with a purity of >95%. The target of NDM-1 enzyme was pre-incubated with the desired oligopeptide for 15min at 35°C before the assay by adding the inhibitor. The oligopeptides used for testing were dissolved in 10mM phosphate-buffered saline (PBS) buffer (pH7.0), containing dimethyl sulfoxide (DMSO) with the final concentration of 0.25% (V/V). […] Ertapenem (80μM) was used as report substrate. The hydrolysis of the substrate by the NDM-1 was detected by monitoring the variation in absorbance resulting from the opening of the β-lactam ring. All the determinations were made on a spectrophotometer (UV-1750, Shimadzu, Japan) connected to a personal computer. The enzymatic reactions were carried out in a total volume of 100μL. The reaction buffer contained 20mM HEPES buffer, pH7.3, 0.25M NaCl, 1mM 1,4-Dithio-DL-threitol (DTT) (Beinglay Biotech Corp., Wuhan, China), 50μM Zn(NO3)2 and 10mg/ml bovine serum albumin (BSA) preventing NDM-1 denaturation. The ultraviolet (UV) absorbance detector was set at 300 nm, a λ max for ertapenem. The IC50 values were determined more than three times by fitting the concentration dependence of residual enzyme activity to the nonlinear regression (curve fit) using GraphPad Prism (GraphPad Software, La Jolla, America).

[2] = tested on: E. coli BL21 (DE3); experiment: MIC of β-lactam antibiotics by E-test method; assay type: cell-based; conditions: Escherichia coli, 24 h
[3] = tested on: P. aeruginosa with blaNDM-1; experiment: MIC of β-lactam antibiotics by E-test method; assay type: cell-based; conditions: Pseudomonas aeruginosa, 24 h
Protocol: (§1) E. coli BL21(DE3) cells were transformed with the pET30a plasmid encoding the NDM-1 gene (Gen Bank ID: HQ162469). E. coli BL21(DE3)/pET30a-NDM-1 was grown overnight at 37°C in liquid Luria-Bertani (LB) broth containing 50μg/ml kanamycin, 100μg/ml ampicillin and 50μM Zn(NO3)2 to select for E. coli clones containing the plasmid of pET30a-NDM-1. Two strains, E. coli BL21 (DE3)/pET30a-NDM-1 overexpressing NDM-1 and P. aeruginosa isolated from Renmin Hospital of Wuhan University with blaNDM-1 confirmed by PCR (data not shown), were cultured overnight, respectively. The cultures were diluted 1:100, grown to an optical density at 600 nm (OD600) of ~0.6, and spread onto LB agar. After naturally drying for five minutes, E-test strips (AB Biodisk, Solna, Sweden) were applied to the ~150mm Mueller-Hinton (MH) (Tianhe Microbial Agents, Hangzhou, China) agar plates and grown for 24h at 35°C to 37°C without further intervention. The antibiotic strips respectively containing penicillin G, ampicillin, cephalothin, cefuroxime, ceftazidime, cefepime, meropenem, ertapenem, aztreonam were used for testing susceptibility. The results were obtained in accordance with the Clinical and Laboratory Standards Institute (CLSI) guidelines.

[4] = tested on: E. coli BL21 (DE3)/pET30a-NDM-1; experiment: MIC of β-lactam antibiotics by E-test method; assay type: cell-based; conditions: Escherichia coli, 24 h
Protocol: as §1

[5] = tested on: E. coli BL21 (DE3)/pET30a; experiment: MIC of β-lactam antibiotics by E-test method; assay type: cell-based; conditions: Escherichia coli, 24 h
[6] = tested on: E. coli BL21 (DE3)/pET30a-NDM-1; experiment: Synergistic antibacterial effect of ertapenem combined with oligopeptide (twofold broth dilution); assay type: cell-based; conditions: ertapenem alone at 256 μg/ml; NDM-1 strain
Protocol: E. coli BL21 (DE3)/pET30a-NDM-1 overexpressing NDM-1 and a clinical isolate of P. aeruginosa with blaNDM-1 were also utilized to evaluate the bioactivities of oligopeptides, which reversed NDM-1-mediated β-lactam antibiotics resistance. Determination of antibacterial synergy was performed using a serial twofold dilutions method recommended by CLSI guidelines. E. coli BL21 (DE3)/pET30a was used as a control in the experiment. Minimum inhibitory concentrations (MICs) of the agents were determined by the twofold serial dilution with Mueller-Hinton (MH) broth (Shifeng Biotech Corp., Shanghai, China). For this assay, E. coli BL21 (DE3)/pET30a-NDM-1 was grown overnight in MH broth media containing 50μg/ml kanamycin at 37°C [23]. β-lactam antibiotic and oligopeptide at various concentrations were added to 120μL broth media of a 1:20 dilution of the overnight culture, resulting the final volume of 150μL [24]. The growth of bacterial cultures was set up in 96-well microplates, which incubated at 37°C with constant shaking continuously for 18 h and a reading at 630 nm was taken to determine the MICs of synergistic effect. The lowest antibiotic concentration preventing visible growth was deemed to be the MIC value. […] Every data of reading was repeated thrice, and each experiment mentioned above was performed at least two times.

Sequence of full-length NDM-1 (C7C422 29-270 limits assumed): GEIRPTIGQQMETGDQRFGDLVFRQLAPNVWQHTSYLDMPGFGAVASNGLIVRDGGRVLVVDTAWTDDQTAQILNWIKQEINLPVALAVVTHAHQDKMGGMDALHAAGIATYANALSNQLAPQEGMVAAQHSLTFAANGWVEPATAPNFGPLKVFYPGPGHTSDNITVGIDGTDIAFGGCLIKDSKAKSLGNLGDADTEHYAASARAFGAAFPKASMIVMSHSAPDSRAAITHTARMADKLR

Compound	IC50 [1]	MIC [2]	MIC [3]	MIC [4]	MIC [5]	growth in broth media containing ertapenem [6]
N[C@@H](CS)C(=O)NCC(=O)N[C@@H](Cc1c[nH]cn1)C(=O)O [Oligopeptide 6, Cys-Gly-His] (H-Cys-Gly-His-OH)	263 ± 21 µM					
CC(C)[C@H](NC(=O)[C@@H](N)CS)C(=O)O [Oligopeptide 4, Cys-Val] (H-Cys-Val-OH)	235 ± 18 µM					
N[C@@H](CS)C(=O)N[C@@H](Cc1ccc(O)cc1)C(=O)O [Oligopeptide 3, Cys-Tyr] (H-Cys-Tyr-OH)	> 300 µM					
N[C@@H](CS)C(=O)NCC(=O)N[C@@H](Cc1ccccc1)C(=O)O [Oligopeptide 7, Cys-Gly-Phe] (H-Cys-Gly-Phe-OH)	144 ± 13 µM					
CO/N=C(\C(=O)N[C@@H]1C(=O)N2C(C(=O)O)=C(COC(N)=O)CS[C@H]12)c1ccco1 [Cefuroxime]		2 µg/mL	256 µg/mL	> 256 µg/mL	3 µg/mL	
CO/N=C(\C(=O)N[C@@H]1C(=O)N2C(C(=O)[O-])=C(C[N+]3(C)CCCC3)CS[C@H]12)c1csc(N)n1 [Cefepime]		0.08 µg/mL	> 64 µg/mL	> 64 µg/mL	0.08 µg/mL	
C[C@@H](O)[C@H]1C(=O)N2C(C(=O)O)=C(S[C@@H]3CN[C@H](C(=O)N(C)C)C3)[C@H](C)[C@H]12 [Meropenem]		0.032 µg/mL	> 32 µg/mL	> 32 µg/mL	0.047 µg/mL	
CC(=O)OCC1=C(C(=O)O)N2C(=O)[C@@H](NC(=O)Cc3cccs3)[C@H]2SC1 [Cephalothin]		6 µg/mL	> 256 µg/mL	> 256 µg/mL	4 µg/mL	
N[C@@H](CS)C(=O)NCC(=O)N[C@@H](Cc1ccc(O)cc1)C(=O)O [Oligopeptide 8, Cys-Gly-Tyr] (H-Cys-Gly-Tyr-OH)	> 300 µM					
CC(C)[C@H](NC(=O)CNC(=O)[C@@H](N)CS)C(=O)O [Oligopeptide 9, Cys-Gly-Val] (H-Cys-Gly-Val-OH)	249 ± 21 µM					
CO/N=C(\C(=O)N[C@@H]1C(=O)N2C(C(=O)O)=C(COC(C)=O)CS[C@H]12)c1csc(N)n1 [Cefotaxime]		0.125 µg/mL	> 256 µg/mL	> 256 µg/mL	0.25 µg/mL	
N[C@@H](CS)C(=O)N[C@@H](CC(=O)O)C(=O)O [Oligopeptide 5, Cys-Asp] (H-Cys-Asp-OH)	68 ± 5 µM					
CC(C)(O/N=C(\C(=O)N[C@@H]1C(=O)N2C(C(=O)[O-])=C(C[n+]3ccccc3)CS[C@H]12)c1csc(N)n1)C(=O)O [Ceftazidime]		0.38 µg/mL	> 256 µg/mL	> 256 µg/mL	0.25 µg/mL	
N[C@@H](CS)C(=O)N[C@@H](Cc1c[nH]cn1)C(=O)O [Oligopeptide 1, Cys-His] (H-Cys-His-OH)	182 ± 14 µM					
CC1(C)S[C@@H]2[C@H](NC(=O)Cc3ccccc3)C(=O)N2[C@H]1C(=O)O [Penicillin G]		12 µg/mL	> 32 µg/mL	> 32 µg/mL	12 µg/mL	
N[C@@H](CS)C(=O)NCC(=O)N[C@@H](CC(=O)O)C(=O)O [Oligopeptide 10, Cys-Gly-Asp] (H-Cys-Gly-Asp-OH)	> 300 µM					
N[C@@H](CS)C(=O)N[C@@H](Cc1ccccc1)C(=O)O [Oligopeptide 2, Cys-Phe] (H-Cys-Phe-OH)	113 ± 9 µM					
CC1(C)S[C@@H]2[C@H](NC(=O)[C@H](N)c3ccccc3)C(=O)N2[C@H]1C(=O)O [Ampicillin]		6 µg/mL	> 256 µg/mL	> 256 µg/mL	8 µg/mL	
C[C@@H](O)[C@H]1C(=O)N2C(C(=O)O)=C(S[C@@H]3CN[C@H](C(=O)Nc4cccc(C(=O)O)c4)C3)[C@H](C)[C@H]12 [Ertapenem]		0.094 µg/mL	> 32 µg/mL	> 32 µg/mL	0.094 µg/mL	still able to grow
C[C@H]1[C@H](NC(=O)/C(=N\OC(C)(C)C(=O)O)c2csc(N)n2)C(=O)N1S(=O)(=O)O [Aztreonam]		0.047 µg/mL	> 256 µg/mL	> 256 µg/mL	0.064 µg/mL	
